Patent US7897582B2, “Oligonucleotide compositions and methods for the modulation of the expression of B7 protein” (Isis Pharmaceuticals, Inc., priority 2003, dated 2011)
Strand notation (5' to 3'): a small letter for the sugar, then the base; units joined by * are phosphorothioate-linked, units joined directly phosphodiester-linked; [ ] holds rarer units or linkages, { } end groups; capitals alone tell only the bases. e = 2'-O-(2-methoxyethyl) (MOE); [5mC] = 5-methylcytosine; d = 2'-deoxy (DNA)

Tests used:
[1] = system: hB7-2 mRNA; test: Ribonuclease protection assay of hB7-2 mRNA in transfected COS-7 cells; assay type: cell-based, human
Procedure: For ribonuclease protection assays, cells were harvested 18 hours after completion of oligonucleotide treatment using a Totally RNA™ kit (Ambion, Austin, Tex.). The probes for the assay were generated from plasmids pcB7-2 (linearized by digestion with Bgl II) and pTRI-b-actin (Ambion Inc., Austin, Tex.). In vitro transcription of the linearized plasmid from the SP6 promoter was performed in the presence of α-^32P-UTP (800 Ci/mmole) yielding an antisense RNA complementary to the 3′ end of B7-2 (position 1044-1391). The probe was gel-purified after treatment with DNase I to remove DNA template. Ribonuclease protection assays were carried out using an RPA II™ kit (Ambion) according to the manufacturer's directions. Total RNA (5 μg) was hybridized overnight, at 42° C., with 10^5 cpm of the B7-2 probe or a control beta-actin probe. The hybridization reaction was then treated, at 37° C. for 30 minutes, with 0.4 units of RNase A and 2 units of RNase T1. Protected RNA was precipitated, resuspended in 10 μL of gel loading buffer and electrophoresed on a 6% acrylamide gel with 50% w/v urea at 20 W. The gel was then exposed and the lanes quantitated using a PhosphorImager (Molecular Dynamics, Sunnyvale, Calif.) essentially according to the manufacturer's instructions.
The oligonucleotides were screened as described in Example 4 except that the concentration of oligonucleotide was varied as shown in Table 13. Mismatch control oligonucleotides were included.

[2] = system: human B7-2; test: Cell surface expression of B7-2 in transfected COS-7 cells by flow cytometry; assay type: cell-based; details: for % Surface Inhibition / % Surface Expression: COS-7 cells, B7-2 cell surface; for % Surface Expression: basal = 100%; for % B7-2 EXPRESSION: human B7 cell surface expression, Table 16
Procedure: (§1) A T-175 flask was seeded at 75% confluency with COS-7 cells (ATCC accession No. CRL 1651). The plasmid pcB7-1 was introduced into cells by standard calcium phosphate transfection. Following a 4 hour transfection, the cells were trypsinized and seeded in 12-well dishes at 80% confluency. The cells were allowed to adhere to the plastic for 1 hour and were then washed with phosphate-buffered saline (PBS). OptiMEM™ (GIBCO-BRL, Gaithersburg, Md.) medium was added along with 15 μg/mL of Lipofectin™ (GIBCO-BRL, Gaithersburg, Md.) and oligonucleotide at the indicated concentrations. After four additional hours, the cells were washed with phosphate buffered saline (PBS) and incubated with fresh oligonucleotide at the same concentration in DMEM (Dulbecco et al., Virol., 1959, 8, 396; Smith et al., Virol., 1960, 12, 185) with 10% fetal calf sera (FCS).
(§2) In order to monitor the effects of oligonucleotides on cell surface expression of B7-1, treated COS-7 cells were harvested by brief trypsinization 24-48 hours after oligonucleotide treatment. The cells were washed with PBS, then resuspended in 100 μL of staining buffer (PBS, 0.2% BSA, 0.1% azide) with 5 μL conjugated anti-B7-1-antibody (i.e., anti-hCD80-FITC, Ancell, Bayport, Minn.; FITC: fluorescein isothiocyanate). The cells were stained for 30 minutes at 4° C., washed with PBS, resuspended in 300 μL containing 0.5% paraformaldehyde. Cells were harvested and the fluorescence profiles were determined using a flow cytometer.
In an initial screen, the ability of hB7-2 oligonucleotides to inhibit B7-2 expression was evaluated by measuring the cell surface expression of B7-2 in transfected COS-7 cells by flow cytometry. The methods used were similar to those given in Example 2, with the exceptions that (1) COS-7 cells were transfected with the plasmids pbcB7-2 or BBG-58, a human ICAM-1 (CD54) expression vector (R&D Systems, Minneapolis, Minn.) introduced into cells by standard calcium phosphate transfection, (2) the oligonucleotides used were those described in Table 2, and (3) a conjugated anti-B7-2 antibody (i.e., anti-hCD86-FITC or anti-CD86-PE, PharMingen, San Diego, Calif.; PE: phycoerythrin) was used during flow cytometry.
(§3) B7 antisense oligonucleotides were tested for their effect on cell surface expression of both B7-1 and B7-2. Cell surface expression was measured as described in Example 1. Experiments were done for both human B7 and mouse B7.
The oligonucleotides were screened as described in Example 2 except that the concentration of oligonucleotide was varied as shown in Table 19.

[3] = system: human B7-1; test: Cell surface expression of B7-1 in pcB7-1-transfected COS-7 cells by flow cytometry; assay type: cell-based; details: for % B7-1 EXPRESSION: human B7 cell surface expression, Table 16
Procedure: The ability of oligonucleotides to inhibit B7-1 expression was evaluated by measuring the cell surface expression of B7-1 in transfected COS-7 cells by flow cytometry.
as §1, §2, §3
The oligonucleotides were screened as described in Example 2 except that the concentration of oligonucleotide was varied as shown in Table 18.

[4] = system: Human B7-1 mRNA; test: Human B7-1 mRNA expression in electroporated, LPS-induced THP-1 cells; assay type: cell-based; details: THP-1 cells electroporated at 10 micromolar oligonucleotide, LPS 1 μg/ml 16 hours
Description: The human promonocytic leukaemia cell line, THP-1 (American Type Culture Collection, Manassas, Va.) was maintained in RPMI 1640 growth media supplemented with 10% fetal calf serum (FCS; Life Technologies, Rockville, Md.). A total of 1×10^7 cells were electroporated at an oligonucleotide concentration of 10 micromolar in 2 mm cuvettes, using an Electrocell Manipulator 600 instrument (Biotechnologies and Experimental Research, Inc.) employing 200 V, 1000 μF. Electroporated cells were then transferred to petri dishes and allowed to recover for 16 hrs. Cells were then induced with LPS at a final concentration of 1 μg/ml for 16 hours. RNA was isolated and processed as described in previous examples.

[5] = COS-7 cells, B7-2 mRNA, oligonucleotide dose 10 nM
[6] = COS-7 cells, B7-2 mRNA, oligonucleotide dose 10 nM, basal = 100%
[7] = COS-7 cells, B7-2 mRNA, oligonucleotide dose 30 nM
[8] = COS-7 cells, B7-2 mRNA, oligonucleotide dose 30 nM, basal = 100%
[9] = COS-7 cells, B7-2 mRNA, oligonucleotide dose 100 nM
[10] = COS-7 cells, B7-2 mRNA, oligonucleotide dose 100 nM, basal = 100%
[11] = COS-7 cells, B7-2 mRNA, oligonucleotide dose 300 nM
[12] = COS-7 cells, B7-2 mRNA, oligonucleotide dose 300 nM, basal = 100%

22284 (eT*eG*e[5mC]*eG*eA*dG*d[5mC]*dT*d[5mC]*d[5mC]*d[5mC]*d[5mC]*dG*dT*dA*e[5mC]*e[5mC]*eT*e[5mC]*e[5mC]; antisense) [compound 22284]
% mRNA INHIBITION [1, 5]: 8% | % mRNA EXPRESSION [1, 6]: 92% | % mRNA INHIBITION [1, 7]: 28% | % mRNA EXPRESSION [1, 8]: 72% | % mRNA INHIBITION [1, 9]: 41% | % mRNA EXPRESSION [1, 10]: 59% | % mRNA INHIBITION [1, 11]: 52% | % mRNA EXPRESSION [1, 12]: 48% | % mRNA EXPRESSION ([1]; human B7-2 mRNA, Table 12): 30% | % Surface Inhibition ([2]; dose 10 nM): 37% | % Surface Expression ([2]; dose 10 nM): 63% | % Surface Inhibition ([2]; dose 30 nM): 40% | % Surface Expression ([2]; dose 30 nM): 60% | % Surface Inhibition ([2]; dose 100 nM): 63% | % Surface Expression ([2]; dose 100 nM): 37% | % Surface Inhibition ([2]; dose 300 nM): 85% | % Surface Expression ([2]; dose 300 nM): 15% | % B7-2 EXPRESSION [2]: 32% | % B7-1 EXPRESSION [3]: 88%

22287 (eA*eG*eA*eA*eT*dG*dT*dT*dA*d[5mC]*dT*d[5mC]*dA*dG*dT*e[5mC]*e[5mC]*e[5mC]*eA*eT; antisense) [compound 22287]
% mRNA INHIBITION [1, 5]: 7% | % mRNA EXPRESSION [1, 6]: 93% | % mRNA INHIBITION [1, 7]: 21% | % mRNA EXPRESSION [1, 8]: 79% | % mRNA INHIBITION [1, 9]: 34% | % mRNA EXPRESSION [1, 10]: 66% | % mRNA INHIBITION [1, 11]: 55% | % mRNA EXPRESSION [1, 12]: 45% | % mRNA EXPRESSION ([1]; human B7-2 mRNA, Table 12): 27% | % Surface Inhibition ([2]; dose 10 nM): 7% | % Surface Expression ([2]; dose 10 nM): 93% | % Surface Inhibition ([2]; dose 30 nM): 40% | % Surface Expression ([2]; dose 30 nM): 60% | % Surface Inhibition ([2]; dose 100 nM): 68% | % Surface Expression ([2]; dose 100 nM): 32% | % Surface Inhibition ([2]; dose 300 nM): 85% | % Surface Expression ([2]; dose 300 nM): 15% | % B7-2 EXPRESSION [2]: 35% | % B7-1 EXPRESSION [3]: 92%

113509 (antisense e[5mC]*eA*eT*eG*eA*dA*dG*d[5mC]*dT*dG*dT*dG*dG*dT*dT*eG*eG*eT*eT*eG) [compound 113509]
% mRNA EXPRESSION [4]: 62% | % mRNA INHIBITION [4]: 38%

113510 (antisense eA*eG*eG*eA*eA*dA*dA*dT*dG*d[5mC]*dT*d[5mC]*dT*dT*dG*e[5mC]*eT*eT*eG*eG) [compound 113510]
% mRNA EXPRESSION [4]: 43% | % mRNA INHIBITION [4]: 57%

113511 (antisense eT*eG*eG*eG*eA*dG*d[5mC]*dA*dG*dG*dT*dT*dA*dT*d[5mC]*eA*eG*eG*eA*eA) [compound 113511]
% mRNA EXPRESSION [4]: 48% | % mRNA INHIBITION [4]: 52%

113512 (antisense eT*eA*eA*eG*eG*dT*dA*dA*dT*dG*dG*d[5mC]*d[5mC]*d[5mC]*dA*eG*eG*eA*eT*eG) [compound 113512]
% mRNA EXPRESSION [4]: 73% | % mRNA INHIBITION [4]: 27%

113513 (antisense eG*eG*eT*e[5mC]*eA*dG*dG*d[5mC]*dA*dG*d[5mC]*dA*dT*dA*dT*e[5mC]*eA*e[5mC]*eA*eA) [compound 113513]
% mRNA EXPRESSION [4]: 48% | % mRNA INHIBITION [4]: 52%

113515 (antisense eA*eG*eA*eT*e[5mC]*dT*dT*dT*dT*d[5mC]*dA*dG*d[5mC]*d[5mC]*d[5mC]*e[5mC]*eT*eT*eG*e[5mC]) [compound 113515]
% mRNA EXPRESSION [4]: 184%

113516 (antisense eT*eT*eT*eG*eT*dT*dA*dA*dG*dG*dG*dA*dA*dG*dA*eA*eT*eG*e[5mC]*e[5mC]) [compound 113516]
% mRNA EXPRESSION [4]: 83% | % mRNA INHIBITION [4]: 17%

113517 (antisense eA*eA*eA*eG*eG*dA*dG*dA*dG*dG*dG*dA*dT*dG*d[5mC]*e[5mC]*eA*eG*e[5mC]*e[5mC]) [compound 113517]
% mRNA EXPRESSION [4]: 201%

113518 (antisense e[5mC]*eA*eA*eG*eA*d[5mC]*dA*dA*dT*dT*d[5mC]*dA*dA*dG*dA*eT*eG*eG*e[5mC]*eA) [compound 113518]
% mRNA EXPRESSION [4]: 97% | % mRNA INHIBITION [4]: 03%

ISIS 13800: phosphorothioate oligonucleotide to human B7-1 mRNA 0158-0177; 5′ UTR; SEQ ID NO: 25 (antisense dA*dC*dA*dC*dA*dC*dA*dG*dA*dG*dA*dT*dT*dG*dG*dA*dG*dG*dG*dT)
inhibition of B7-1 expression ([3]; COS-7 cells transiently expressing B7-1 cDNA, FIG. 1): essentially no inhibition | inhibition of cell surface expression of B7-1 at various concentrations ([3]; dose response, FIG. 2): essentially inactive

ISIS 13872: scrambled control of ISIS 13812; SEQ ID NO: 52 (SEQ ID NO: 37) (antisense dA*dG*dT*dC*dC*dT*dA*dC*dT*dA*dC*dC*dA*dG*dC*dC*dG*dC*dC*dT) [reference compound]
effect on B7-2 expression (specificity) ([2]; FIG. 5): essentially no activity | effect on B7-1 expression (specificity) ([3]; FIG. 5): essentially no activity
